# Data reported in paper PMC8011931, “Identification, Structure–Activity Relationship, and Biological Characterization of 2,3,4,5-Tetrahydro-1H-pyrido[4,3-b]indoles as a Novel Class of CFTR Potentiators” (Journal of Medicinal Chemistry, 2020).
# Values joined by “and” are separate entries in the source; they are usually repeats but may differ in a detail not shown here. Equal entries are not always repeated. Where two headings read alike, the source gives them in different places.
# Experiment: Pharmacokinetics after i.v. and p.o. administration to rats
# Assay type: in vivo, Sprague–Dawley rats
# Conditions: for half-life at 4 h: read-out: half-life (min) (elimination phase)
# Description: Based on both its biological profile, showing a good efficacy in primary and secondary assays, and preliminary in vitro ADME properties, potentiator 39 was further evaluated in in vivo studies. […]
# Male Sprague–Dawley rats, 2 month old and weighing 175–200 g (Charles River, Calco, Italy), were used. Animals were group-housed in ventilated cages and had free access to food and water. They were maintained under a 12 h light/dark cycle (lights on at 8:00 am) at a controlled temperature (21 ± 1 °C) and relative humidity (55 ± 10%). All experiments were carried out in accordance with the guidelines established by the European Communities Council Directive (Directive 2010/63/EU of September 22, 2010) and approved by the National Council on Animal Care of the Italian Ministry of Health. All efforts were made to minimize animal suffering and to use the minimal number of animals required to produce reliable results.
# […] PEG400/Tween 80/saline solution was used as a vehicle at 10/10/80% in volume, respectively. Three animals per dose were treated. Blood samples at 0, 15, 30, 60, 90, 120, 240, and 360 min after administration were collected for p.o. arm. Blood samples at 0, 5, 15, 30, 60, 90, 120, and 240 min after administration were collected for i.v. arm. Plasma was separated from blood by centrifugation for 15 min at 3500 rpm at 4 °C, collected in an Eppendorf tube, and frozen (−80 °C). Control animals treated with vehicle only were also included in the experimental protocol.
# Plasma samples were centrifuged at 21,100g for 15 min at 4 °C, while homogenized lung samples were vigorously whirled. An aliquot of each sample was extracted (1:3) with cold CH3CN containing 200 nM of an appropriate internal standard being a close analogue of the parent compound. A calibration curve was prepared in both blank mouse plasma and naïve lung homogenate over a 1 nM to 10 μM range. Three quality controls were prepared by spiking the parent compound in both blank mouse plasma and naïve lung homogenate to 20, 200, and 2000 nM as final concentrations. The calibrators and quality controls were extracted (1:3) with the same extraction solution as the plasma and lung samples. The plasma and lung samples, the calibrators, and quality controls were centrifuged at 3270g for 15 min at 4 °C. The supernatants were further diluted (1:1) with H2O and analyzed by LC/MS–MS on a Waters ACQUITY UPLC/MS TQD system consisting of a TQD mass spectrometer equipped with an electrospray ionization interface and a photodiode array eλ detector. Electrospray ionization was applied in the positive mode. Compound-dependent parameters such as MRM transitions and collision energy were developed for the parent compound and the internal standard. The mobile phase was H2O + 0.1% HCOOH (A) and CH3CN + 0.1% HCOOH (B) at a flow rate of 0.5 mL/min. For plasma samples, the analyses were run on an ACQUITY UPLC BEH C18 (50 × 2.1 mm ID, particle size 1.7 μm) with a VanGuard BEH C18 precolumn (5 × 2.1 mm ID, particle size 1.7 μm) at 40 °C. A linear gradient was applied starting at 30% B with an initial hold for 0.2 min and then 30–100% B in 2 min. For lung samples, the analyses were run on an ACQUITY UPLC BEH C18 (100 × 2.1 mm ID, particle size 1.7 μm) with a VanGuard BEH C18 precolumn (5 × 2.1 mm ID, particle size 1.7 μm) at 40 °C. A linear gradient was applied starting at 30% B with an initial hold for 0.2 min and then 30–100% B in 6 min. All samples (plasma and lung samples, calibrators, and quality controls) were quantified by MRM peak area response factor in order to determine the levels of the parent compound in plasma and lung. The concentrations versus time data were plotted and the profiles were fitted using PK Solutions Excel Application (Summit Research Service, USA) in order to determine the pharmacokinetic parameters.
# [1] = male, Sprague-Dawley, rat, iv, 3 mg/kg, plasma
# [2] = male, Sprague-Dawley, rat, plasma, iv, 3 mg/kg
# [3] = male, Sprague-Dawley, rat, plasma, po, 10 mg/kg
# [4] = male, Sprague-Dawley, rat, po, 10 mg/kg, plasma
smiles,measurement,setting,value
"Cc1ccc(F)c2[nH]c3c(c12)CN(C(=O)c1cc(C(F)(F)F)[nH]n1)[C@H](C)C3 [Compound 39, (R)-(6-Fluoro-3,9-dimethyl-1,3,4,5-tetrahydro-2H-pyrido[4,3-b]indol-2-yl)-(5-(trifluoromethyl)-1H-pyrazol-3-yl)methanone]",Cmax,[1],2790 ng/mL
same,Cmax at 4 h,[1],7.3 µM
same,AUC,[2],2320 ng·h/mL and 6.1 µM·h
same,Tmax at 4 h,[2],5 min
same,Vd at 4 h,[2],2.39 L/kg
same,clearance at 4 h,[2],19 mL/min/kg
same,half-life at 4 h,[2],89 min
same,bioavailability,"male, Sprague-Dawley, rat, plasma, oral, p.o. 10 mg/kg versus i.v. 3 mg/kg, time interval 0–4 h",~30%
same,AUC,[3],2330 ng·h/mL
same,half-life at 4 h,[3],212 min
same,concentration at 6 h,"male, Sprague-Dawley, rat, plasma, po, 10 mg/kg, read-out: plasma level at 6 h postadministration",> 450 ng/mL and ~1.2 µM
same,Tmax,"male, Sprague-Dawley, rat, plasma, po, 10 mg/kg, read-out: time of maximal plasma concentration",2 h
same,AUC,"male, Sprague-Dawley, rat, plasma, po, 10 mg/kg, time interval 0–4 h",6.1 µM·h
same,bioavailability at 4 h,"male, Sprague-Dawley, rat, plasma, po, p.o. 10 mg/kg versus i.v. 3 mg/kg, time interval 0–4 h",30%
same,Cmax,[4],769 ng/mL
same,Cmax at 4 h,[4],2 µM
same,Tmax,"p.o., 10 mg/kg",2 h
